Experiments:
JAK2 = settings: peripheral neuropathy and Wernicke encephalopathy; termination from phase III clinical trials; cited from earlier work
K562 cells = assay: Survival of K562 cells treated with imatinib +/- cytokines; type: cell-based, human
Method: (J) Real-time qPCR analysis illustrating expression of c-FOS, DUSP1, and ZFP36 in primary CML patient peripheral blood mononuclear cells normalized to CD34+ cells from normal volunteers (black bar). Four chronic phase (CP) and three blast crisis (BC) patients were analyzed.
BaF3 cells were generated with tetracycline-inducible expression of BCR/ABL (BaF3-LTBA, FIG. 3A), as well as those with constitutive BCR/ABL expression (BAF3-BCR/ABL, FIG. 3B).

BCR/ABL induced leukemia = assay: Retroviral bone marrow transduction transplantation CML model; settings: mouse model of CML
Method: Kit^+ cells from mouse bone marrow were transduced with BCR/ABL-IRES-YFP retroviruses. Five thousand GFP^+ cells were plated for in vitro CFU assays, and 40,000 YFP^+ cells were transplanted for in vivo leukemia development in lethally irradiated C57Bl6 mice. […] Data shown are from two independent transplant experiments (n p=0.017). Below, Bar graphs illustrating leukemic burden in mice transplanted with BCR-ABL Kit^+ cells, measured by the level of YFP in peripheral blood as a surrogate for BCR/ABL expression.
For in vivo analysis, mice were transplanted with 40 thousand bone marrow Kit^+ cells expressing BCR/ABL and YFP.
To test c-Fos and Dusp1 as potential drug targets, in vitro and in vivo experiments were performed using small molecule inhibitors of c-Fos and Dusp1 (FIG. 5A). […] Representative data shown are the mean colony number from two independent experiments±S.D. (*=p<0.01, **=p<0.002). […] Data shown are from two independent transplant experiments (n=12; p=0.0285).
Next, in vivo efficacy was examined using a retroviral bone marrow transduction transplantation CML model.

MPN cells = assay: Colony forming unit (CFU) assay of MPN cells; type: cell-based, mouse; settings: in vitro CFU assay
Method: To test this, hematopoietic CFU assays were performed using mouse bone marrow-derived Kit+ cells transduced with retroviruses expressing, pMSCV-Ires-GFP (vector), Jak2-V617F-Ires-GFP, Mpl-W515L-ires-GFP, and CSF3R-T618IIres-GFP.
Given the limitations of in vitro assays, performed in vivo experiments were then performed using bone marrow transduction transplantation assays. For in vivo analysis, mice were transplanted with 80-100 thousand bone marrow Kit^+ cells expressing Jak2-V617F-ires-GFP, CSF3R-T618I-Ires-GFP and MSCV-Ires-GFP (vector control). Mice received […] developed fatal MPD with a disease latency of 4-6 months.

For `Cc1cnc(Nc2ccc(OCCN3CCCC3)cc2)nc1Nc1cccc(S(=O)(=O)NC(C)(C)C)c1` [fedratinib], the neurological toxicity (JAK2) is given as “profound neurological toxicities”.

In the case of `Cc1ccc(NC(=O)c2ccc(CN3CCN(C)CC3)cc2)cc1Nc1nccc(-c2cccnc2)n1` [imatinib], the “effect of erythropoietin on imatinib response” value (K562 cells) is reported as “erythropoietin conferred imatinib resistance”.

With `O=C1/C(=C/c2ccccc2)C(NC2CCCCC2)c2ccccc21` (stereo not drawn) [BCI, (E)-2-benzylidene-3-(cyclohexylamino)-2,3-dihydro-1H-inden-1-one] the bioavailability (BCR/ABL induced leukemia) was “bioavailable”, the “target inhibition in vivo” value (BCR/ABL induced leukemia) was “inhibits its designated target” and the “targeting of MPN cells” value (MPN cells) was “selective targeting of MPN cells”.

In the case of `Cc1cc(Nc2nc(N[C@@H](C)c3ncc(F)cn3)ncc2Cl)n[nH]1` [AZD1480], the neurological toxicity (JAK2) is listed as “profound neurological toxicities”.

Source: patent US10512642B2, “Therapeutic targeting of myeloproliferative neoplasms by DUSP1 inhibition” (Children's Hospital Medical Center, priority 2015, dated 2019)
